Data set [1] deals with S. aureus ATCC 29213. Description: Synergy with oxacillin and vancomycin, partial checkerboard broth microdilution. The format is cell-based, Staphylococcus aureus. The conditions noted are these: for FIC (Oxa) / FIC (Van): MIC antibiotic in combination/MIC antibiotic alone; for MIC Oxa in Combination: oxacillin with the complex at ½ MIC (NH4PF6 250 µg/mL); for MIC Van in Combination: vancomycin with the complex at ½ MIC (NH4PF6 250 µg/mL); for MIC: Staphylococcus aureus. In general terms: Dilution methods test growth across graded concentrations, often in twofold steps.

Data set [2] concerns S. epidermidis ATCC 12228. The description is as above. It is filed as cell-based, Staphylococcus epidermidis. The settings on record: for FIC (Oxa) / FIC (Van): MIC antibiotic in combination/MIC antibiotic alone; for MIC Oxa in Combination: oxacillin with the complex at ½ MIC (NH4PF6 250 µg/mL); for MIC Van in Combination: vancomycin with the complex at ½ MIC (NH4PF6 250 µg/mL); for MIC: Staphylococcus epidermidis.

The subject of data set [3] is Candida albicans ATCC 10231. In words: MIC and MBC/MFC by broth microdilution. It is filed as cell-based. The settings on record: C. albicans ATCC 10231. As to the method: (§1) Reference strains of bacteria and fungi: Staphylococcus aureus ATCC 29213, Staphylococcus epidermidis ATCC 12228, Enterococcus faecalis ATCC 29212, Pseudomonas aeruginosa ATCC 25619, Proteus vulgaris ATCC 8427, and Candida albicans ATCC 10231 (Manassas, VA, USA) were used to screen the antimicrobial activity of the arene-ruthenium(II) complexes 3a-3d, NH4PF6 and selected antibiotics. The microorganisms were grown for 24 h (bacteria) or 48 h (fungi) in 35-37 °C in tryptic-soy agar (TSA; BTL Sp. z o.o., Łódź, Poland) or Sabouraud's dextrose agar (SDA; BTL Sp. z o.o., Łódź, Poland) according to nutritional requirements. Microbial suspensions at a density of about 5 × 10^5 CFU/mL were prepared in Mueller-Hinton broth (MHB; BTL Sp. z o.o., Łódź, Poland) or RPMI-1640 medium (Sigma, St. Louis, MO, USA) for bacteria and fungi, respectively. […] Louis, MO, USA). Stock solutions of the lyophilized compounds were freshly prepared in 100% DMSO (POCh, Gliwice, Poland) for the complexes, or in water for injection (Sigma, St. Louis, MO, USA) in the case of antibiotics. […] MIC and MBC/MFC were defined as the lowest concentrations of the compounds inhibiting bacterial/fungal growth or able to kill added microbial inoculum, respectively, and were evaluated as described by […] et al.. Experiments were carried out in duplicate.

The subject of data set [4] is Proteus vulgaris ATCC 8427. In words: MIC and MBC/MFC by broth microdilution. The format is cell-based. The conditions noted are these: P. vulgaris ATCC 8427. On the procedure: as §1
Data set [5] relates to Pseudomonas aeruginosa ATCC 25619. Description: MIC and MBC/MFC by broth microdilution. The settings on record: P. aeruginosa ATCC 25619. It is filed as cell-based. As to the method:
as §1

The subject of data set [6] is Enterococcus faecalis ATCC 29212. In words: MIC and MBC/MFC by broth microdilution. The conditions noted are these: E. faecalis ATCC 29212. The format is cell-based. On the procedure: as §1
In data set [7] the test system is Staphylococcus epidermidis ATCC 12228. In words: MIC and MBC/MFC by broth microdilution. The settings on record: S. epidermidis ATCC 12228. The format is cell-based. On the procedure:
as §1

The subject of data set [8] is Staphylococcus aureus ATCC 29213. In words: MIC and MBC/MFC by broth microdilution. The settings on record: S. aureus ATCC 29213. It is filed as cell-based. On the procedure:
as §1

Data set [9] relates to Staphylococcus epidermidis ATCC 12228. In words: Fluorescence microscopy, Hoechst 33258 / propidium iodide viability. The format is cell-based. The settings on record: S. epidermidis ATCC 12228; MIC concentration, 24 h. On the procedure:
(§2) Staphylococcus aureus ATCC 29213 and Staphylococcus epidermidis ATCC 12228 strains were treated with tested compounds 2a–2d and 3a–3d at a concentration 1 × MIC for 24h, while untreated cells were used as a growth control. After incubation, the cells were harvested and a suspension of 1 × 10^5 cells/mL in PBS was prepared. Following this, 1 µl of the fluorescent dyes Hoechst 33258 and propidium iodide (15 µg/mL each) (Sigma, St. Louis, MO, USA) were added. The obtained mixture was incubated in the dark at room temperature for 15–20 min. After incubation, the cell suspensions, placed on glass slides, were analyzed under an Olympus IX 70 fluorescence microscope (Shinjuku, Tokyo, Japan), using a 360–370 nm UV filter. Photos were taken at 10 × 20 magnification.

For data set [10], the system named is Staphylococcus aureus ATCC 29213. The description is as above. The conditions noted are these: S. aureus ATCC 29213; MIC concentration, 24 h. The format is cell-based. On the procedure: as §2
The subject of data set [11] is human foreskin fibroblast HFF-1 (ATCC-SCRC-1041). In words: Cytotoxicity, MTT reduction assay. It is filed as cell-based. As to the method: The cytotoxicity of arene-ruthenium(II) complexes 3a–3d was determined using the MTT (3-(4,5-dimethylthiazol-2-yl)-2,5-diphenyltetrazolium bromide; Sigma, St. Louis, MO, USA) reduction assay and a human foreskin fibroblast HFF-1 culture (ATCC-SCRC-1041) (LGC Standards Sp. z o.o., Poland) at a final concentration range of 3.9–500 µM. The HFF-1 cells were cultured in Dulbecco’s Modified Eagle’s Medium (DMEM; Sigma, St. Louis, MO, USA) with 15% fetal bovine serum (FBS; BioWest, Nuaillé, France) and penicillin/streptomycin (100 × stock solution; BioWest, Nuaillé, France), 1 × 10^6 cell/mL (100 µL/well) in 96-well tissue culture plates (Nunc, Roskilde, Denmark) for 24 h at 37 °C/5% CO2. The cells were then exposed to arene-ruthenium(II) complexes for 24 h at 37 °C. The control (untreated) cells were exposed to culture medium alone or culture medium containing 2% DMSO to exclude the effect of the solvent used to prepare the stock solutions of the tested complexes. Next, fresh culture medium (100 µL/well) and MTT (1.5 mg/mL, 50 µL/well) were added, and cells were incubated for two hours under the above conditions. MTT was […] blue formazan crystals produced by the metabolically active cells. Finally, the MTT solution was removed and replaced with 100 µL/well of 20% sodium dodecyl sulfate (SDS; Sigma, St. Louis, MO, USA) for 24 h (room temperature) to dissolve the blue formazan. Based on the absorbance (λ = 550 nm) of tested and control cells (100% viability), the percentage of cell viability after exposure was calculated. For each sample, the experiment was performed twice.

≈ marks a conversion by molar mass, not a printed value. Where two headings read alike, the source gives them in different places. A value given as a limit tells only on which side of the number the result lay.

As to `Cc1ccc(C(C)C)cc1.Cc1ccc(C(C)C)cc1.[Cl][Ru][Cl].[Cl][Ru][Cl]` [Dimer, dichloro(p-cymene)ruthenium(II) dimer], in data set [1] (S. aureus ATCC 29213), the “Correlation with Oxa and Van (synergy), in words” value (“Correlation with Oxa and Van” below) is reported as “did not show any synergistic effect”; the “FIC (Oxa)” value is 1; the “FIC (Van)” value stood at 1; the “MIC Oxa in Combination” value amounted to 0.250 µg/mL. For the same molecule, in data set [1] (S. aureus ATCC 29213), the “MIC Van in Combination” value is 0.50 µg/mL. Also, in [2] (S. epidermidis ATCC 12228), the “Correlation with Oxa and Van” value is on record as “did not show any synergistic effect”; the “FIC (Oxa)” value is given as 1; the “FIC (Van)” value is on record as 2; the “MIC Oxa in Combination” value is given as 0.25 µg/mL. The “MIC Van in Combination” value in [2] (S. epidermidis ATCC 12228) is given as 1 µg/mL.
On to `OC(Cn1cncn1)(Cn1cncn1)c1ccc(F)cc1F` [Flu, fluconazole, reference compound], for which, in [3], the MBC/MFC was >16 µg/mL and the MIC is on record as >16 µg/mL. For the same molecule, the MIC in [3] (Candida albicans, ATCC10231, read-out: MIC) is > 16 µg/mL.
Take `CNC(C)C1CCC(N)C(OC2C(N)CC(N)C(OC3OCC(C)(O)C(NC)C3O)C2O)O1` (centres unmarked) [Gen, gentamicin, reference compound]: the MBC/MFC is on record as 1 µg/mL (≈ 2.09 µM) in data set [4], 16 µg/mL (≈ 33.5 µM) in data set [5] and <2 µg/mL in data set [6]. The MIC in [4] (Proteus vulgaris, ATCC8427, read-out: MIC) was 1 µg/mL (≈ 2.09 µM); in data set [5] (Pseudomonas aeruginosa, ATCC25619, read-out: MIC), 8 µg/mL (≈ 16.8 µM); in [6], <2 µg/mL; in data set [6] (Enterococcus faecalis, ATCC29212, read-out: MIC), < 2 µg/mL.
In the case of `F[P-](F)(F)(F)(F)F.[NH4+]` [NH4PF6, Ammonium hexafluorophosphate], the MBC/MFC in [4], in data set [3], in data set [5], in [7], in [6] and in data set [8] was >1000 µg/mL in each case. The MIC in data set [4], in data set [3], in [5], in [7], in data set [6] and in data set [8] was >1000 µg/mL each time. Further, the “Correlation with Oxa and Van” value in data set [1] (S. aureus ATCC 29213) and in data set [2] (S. epidermidis ATCC 12228) was “did not show any synergistic effect” throughout. Also, the “FIC (Oxa)” value in [1] (S. aureus ATCC 29213) and in data set [2] (S. epidermidis ATCC 12228) was 1 in each case. The “FIC (Van)” value in [1] (S. aureus ATCC 29213) is recorded as 1; in data set [2] (S. epidermidis ATCC 12228) it was 2. Also, the “MIC Oxa in Combination” value in [1] (S. aureus ATCC 29213) worked out at 0.250 µg/mL; in [2] (S. epidermidis ATCC 12228), 0.25 µg/mL. The “MIC Van in Combination” value is listed as 0.50 µg/mL in [1] (S. aureus ATCC 29213) and 1 µg/mL in data set [2] (S. epidermidis ATCC 12228).
For `Cc1onc(-c2ccccc2)c1C(=O)N[C@@H]1C(=O)N2[C@@H]1SC(C)(C)[C@@H]2C(=O)O` [Oxa, oxacillin, reference compound], the MBC/MFC in [7] and in [8] was 0.5 µg/mL (≈ 1.25 µM) each time. In addition, the MIC in [7] (Staphylococcus epidermidis, ATCC12228, read-out: MIC) came out at 0.25 µg/mL (≈ 0.623 µM); in [8] (Staphylococcus aureus, ATCC29213, read-out: MIC) it was 0.25 µg/mL (≈ 0.623 µM); in data set [1] (ATCC29213, S. aureus ATCC 29213, oxacillin without complex, read-out: MIC Oxa Alone), 0.25 µg/mL; in [2] (ATCC12228, S. epidermidis ATCC 12228, oxacillin without complex, read-out: MIC Oxa Alone) it was 0.25 µg/mL.
Take `CN[C@H](CC(C)C)C(=O)N[C@H]1C(=O)N[C@@H](CC(N)=O)C(=O)N[C@H]2C(=O)N[C@H]3C(=O)N[C@H](C(=O)N[C@H](C(=O)O)c4cc(O)cc(O)c4-c4cc3ccc4O)[C@H](O)c3ccc(c(Cl)c3)Oc3cc2cc(c3O[C@@H]2O[C@H](CO)[C@@H](O)[C@H](O)[C@H]2O[C@H]2C[C@](C)(N)[C@H](O)[C@H](C)O2)Oc2ccc(cc2Cl)[C@H]1O` [Van, vancomycin, reference compound]: the MIC in [1] (ATCC29213, read-out: MIC Van Alone) came to 0.5 µg/mL; in data set [2] (ATCC12228, read-out: MIC Van Alone) it was 0.5 µg/mL.
For the molecule “[(η ^6 -p-cymene)Ru(1-[amino(thioxo)methyl]-5-hydroxy-3-methyl-1H-pyrazole)[PF6] [Compound 3d]”, the “Change in bacterial viability (Hoechst 33258 / PI fluorescence)” value in data set [9] and in data set [10] was “no significant changes in the viability” in each case. Further, the MBC/MFC in data set [4] is reported as >1000 µg/mL; in [3], >1000 µg/mL; in data set [5], 1000 µg/mL; in [7], 250 µg/mL; in data set [6] it was 500 µg/mL; in [8], 500 µg/mL. The MIC in [4] is >1000 µg/mL; in data set [3], >1000 µg/mL; in data set [5], 1000 µg/mL; in data set [7], 125 µg/mL; in [6], 500 µg/mL; in [8], 125 µg/mL. Moreover, the “FIC (Oxa)” value is 1 in [1] (S. aureus ATCC 29213) and 0.25 in data set [2] (S. epidermidis ATCC 12228). The figures for the “FIC (Van)” value in data set [1] (S. aureus ATCC 29213) and in data set [2] (S. epidermidis ATCC 12228) were 2 and 0.06, respectively. Also, the figures for the “MIC Oxa in Combination” value in [1] (S. aureus ATCC 29213) and in data set [2] (S. epidermidis ATCC 12228) were 0.250 µg/mL and 0.06 µg/mL, respectively. Moreover, the figures for the “MIC Van in Combination” value in [1] (S. aureus ATCC 29213) and in [2] (S. epidermidis ATCC 12228) were 1 µg/mL and 0.03 µg/mL, respectively. Besides, half-maximal inhibition in data set [11] (HFF-1, MTT, 24 h, tested 3.9–500 μM) (IC50) was put at 892 µM. Besides, the “HFF-1 viability (lowest)” value in data set [11] (range 3.9–500 μM) is ≥ 75%.

Usually MIC stands for the lowest concentration that inhibits growth of the organism. The IC50 is the concentration at which inhibition is half-maximal. Low values mean greater potency in that assay, high ones weaker potency in that assay.

The record behind these values is publication PMC8781304, “Arene-Ruthenium(II) Complexes with Carbothiamidopyrazoles as a Potential Alternative for Antibiotic Resistance in Human” (Molecules, 2022).
